Test results reported in ChEMBL document CHEMBL5537113, “Discovery of 1,2-diaryl-3-oxopyrazolidin-4-carboxamides as a new class of MurA enzyme inhibitors and characterization of their antibacterial activity” (Eur J Med Chem, 2023).

Columns and labels:
[1] = test system: Clostridioides difficile; assay: Antibacterial activity against Clostridioides difficile NR-49283 assessed as reduction in microbial growth incubated for 48 hrs by broth microdilution method; assay type: functional
[2] = target: UDP-N-acetylglucosamine 1-carboxyvinyltransferase (Escherichia coli K-12, UniProt P0A749); assay: Inhibition of Escherichia coli K12 His-tagged MurA expressed in Escherichia coli BL21 cells using UNAG as substrate pre incubated for 15 mins followed by substrate addition and measured after 15 mins by microplate reader analysis
Sequence of UDP-N-acetylglucosamine 1-carboxyvinyltransferase (Escherichia coli K-12, UniProt P0A749) (P0A749 whole entry): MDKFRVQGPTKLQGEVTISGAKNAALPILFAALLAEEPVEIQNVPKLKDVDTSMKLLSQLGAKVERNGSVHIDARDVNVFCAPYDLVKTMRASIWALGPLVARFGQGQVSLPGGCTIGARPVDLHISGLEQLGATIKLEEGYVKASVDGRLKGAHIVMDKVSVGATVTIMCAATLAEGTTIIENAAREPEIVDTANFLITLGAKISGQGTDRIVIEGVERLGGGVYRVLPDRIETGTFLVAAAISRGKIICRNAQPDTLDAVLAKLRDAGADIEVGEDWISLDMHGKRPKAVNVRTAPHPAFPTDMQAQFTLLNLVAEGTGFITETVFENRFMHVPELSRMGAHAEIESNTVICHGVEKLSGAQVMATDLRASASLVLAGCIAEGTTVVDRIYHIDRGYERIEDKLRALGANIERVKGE

[3] = test system: Caco-2; assay: Cytotoxicity against human Caco-2 cells assessed as reduction in cell viability at > 128 ug/ml after 24 hrs by MTS assay; assay type: toxicity, cell-based; conditions: caco-2, 24 h, dose > 128 µg/ml
[4] = target: UDP-N-acetylglucosamine 1-carboxyvinyltransferase (Escherichia coli K-12) (UniProt P0A749); assay: Inhibition of Escherichia coli K12 His-tagged MurA expressed in Escherichia coli BL21 cells at 50 uM using UNAG as substrate pre incubated for 15 mins followed by substrate addition and measured after 15 mins by microplate reader analysis relative to control; conditions: time 30.0 min
Sequence of UDP-N-acetylglucosamine 1-carboxyvinyltransferase (Escherichia coli K-12) (P0A749 whole entry): as above

[5] = test system: Enterococcus faecalis; assay: Antibacterial activity against Enterococcus faecalis ATCC 51299 assessed as reduction in microbial growth by CLSI based broth microdilution method; assay type: functional
[6] = test system: Clostridioides difficile; assay: Bactericidal activity against Clostridioides difficile NR-49278 assessed as reduction in microbial growth by broth microdilution method; assay type: functional
[7] = test system: Clostridioides difficile; assay: Antibacterial activity against Clostridioides difficile HM-88 assessed as reduction in microbial growth incubated for 48 hrs by broth microdilution method; assay type: functional
[8] = test system: Clostridioides difficile; assay: Antibacterial activity against Clostridioides difficile NR-32895 assessed as reduction in microbial growth incubated for 48 hrs by broth microdilution method; assay type: functional
[9] = test system: Bifidobacterium breve; assay: Antibacterial activity against Bifidobacterium breve HM1120 assessed as reduction in microbial growth incubated for 48 hrs by broth microdilution method; assay type: functional
[10] = test system: Clostridioides difficile; assay: Antibacterial activity against Clostridioides difficile NR-49277 assessed as reduction in microbial growth incubated for 48 hrs by broth microdilution method; assay type: functional
[11] = test system: Clostridioides difficile; assay: Antibacterial activity against Clostridioides difficile ATCC BAA1870 assessed as reduction in microbial growth incubated for 48 hrs by broth microdilution method; assay type: functional
[12] = test system: Clostridioides difficile; assay: Selectivity ratio of MBC for antibacterial activity against Clostridioides difficile NR-32895 to MIC for antibacterial activity against Clostridioides difficile NR-32895; assay type: functional
[13] = test system: Streptococcus pneumoniae; assay: Antibacterial activity against Streptococcus pneumoniae ATCC 700677 assessed as reduction in microbial growth by CLSI based broth microdilution method; assay type: functional
[14] = Drug uptake in Escherichia coli harboring tolC deletion mutant assessed per 1.6x10^9 cells at 10 uM incubated for 30 mins by LC analysis; assay type: ADME; conditions: 0.5 h
[15] = test system: UDP-N-acetylglucosamine 1-carboxyvinyltransferase (Escherichia coli K-12), P0A749 [C115D]; assay: Inhibition of Escherichia coli MurA C115D mutant using UNAG as substrate pre incubated for 15 mins followed by substrate addition and measured after 15 mins by microplate reader analysis; conditions: time 30.0 min
Sequence of UDP-N-acetylglucosamine 1-carboxyvinyltransferase (Escherichia coli K-12), P0A749 [C115D] (P0A749 whole entry C115D): as the sequence (P0A749 whole entry) above, with C115D counted along it

[16] = test system: Caco-2; assay: Cytotoxicity against human Caco-2 cells assessed as reduction in cell viability at 64 ug/ml after 24 hrs by MTS assay; assay type: toxicity, cell-based; conditions: caco-2, 24 h, dose 64 µg/ml
[17] = Drug uptake in Escherichia coli harboring tolC deletion mutant at 10 uM incubated for 30 mins by LC analysis; assay type: ADME; conditions: 0.5 h
[18] = target: UDP-N-acetylglucosamine 1-carboxyvinyltransferase (Escherichia coli K-12, UniProt P0A749, C115D); assay: Inhibition of Escherichia coli MurA C115D mutant at 50 uM using UNAG as substrate pre incubated for 15 mins followed by substrate addition and measured after 15 mins by microplate reader analysis relative to control
Sequence of UDP-N-acetylglucosamine 1-carboxyvinyltransferase (Escherichia coli K-12, UniProt P0A749, C115D) (P0A749 whole entry C115D): as the sequence (P0A749 whole entry) above, with C115D counted along it

SMILES | MIC [1] [µg/mL] | IC50 [2] [µM] | Activity [3] | inhibition [4] [%] | MIC [5] [µg/mL] | MBC [6] [µg/mL] | MIC [7] [µg/mL] | MIC [8] [µg/mL] | MIC [9] [µg/mL] | MIC [10] [µg/mL] | MIC [11] [µg/mL] | Ratio [12] | MIC [13] [µg/mL] | Drug uptake [14] [µM] | inhibition [15] [%] | Activity [16] | Drug uptake [17] [nM] | IC50 [18] [µM]
O=C(Nc1ncc([N+](=O)[O-])s1)C1CN(c2ccc(Cl)cc2)N(c2ccc(Cl)cc2)C1=O (stereo not given) | 0.5 | 10.2 | Non-Toxic | 70.2 | > 64 | 0.5 | 0.5 | 1 | > 64 | 1 | 0.5 | 1 | 64 | – | – | – | – | –
O=C(Nc1ncc([N+](=O)[O-])s1)C1CN(c2cccc(Cl)c2)N(c2cccc(Cl)c2)C1=O (stereo not given) | 0.5 | 9.8 | – | 67.6 | > 64 | 0.5 | 0.5 | 0.5 | 64 | 0.5 | 0.25 | 1 | 4 | 1.8 | 76 | Non-Toxic | 56 | 10.9
